Here are results for seven molecules from BindingDB's records for doi:10.1124/jpet.301.1.37 (National Institutes of Health, 2002).

“And” between values parts separate entries of the source, which are not always exact repeats. Equal values may be shown once.

The target of this test is T1, VIP peptides (Cavia porcellus, UniProt P04566).
T1 sequence (P04566 whole entry): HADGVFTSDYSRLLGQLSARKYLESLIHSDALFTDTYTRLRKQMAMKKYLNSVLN
For orientation: Ki means the dissociation constant of the complex between target and ligand, obtained from inhibition or displacement. A lower Ki goes with a stronger hold on the target. In turn, `CC[C@H](C)[C@H](NC(=O)[C@H](CO)NC(=O)[C@H](CC(N)=O)NC(=O)[C@H](CC(C)C)NC(=O)[C@H](Cc1ccc(O)cc1)NC(=O)[C@H](CCCCN)NC(=O)[C@H](CCCCN)NC(=O)[C@@H](NC(=O)[C@H](C)NC(=O)[C@@H](CCSC)NC(=O)[C@H](CCC(N)=O)NC(=O)[C@H](CCCCN)NC(=O)[C@H](CCCN=C(N)N)NC(=O)[C@H](CC(C)C)NC(=O)[C@H](CCCN=C(N)N)NC(=O)C(NC(=O)[C@H](Cc1ccc(O)cc1)NC(=O)[C@H](CC(N)=O)NC(=O)[C@H](CC(=O)O)NC(=O)[C@@H](NC(=O)[C@H](Cc1ccccc1)NC(=O)[C@@H](NC(=O)[C@H](C)NC(=O)[C@H](CC(=O)O)NC(=O)[C@H](CO)NC(=O)[C@@H](N)Cc1cnc[nH]1)C(C)C)[C@@H](C)O)[C@@H](C)O)C(C)C)C(=O)N[C@@H](CC(C)C)C(=O)N[C@@H](CC(N)=O)C(N)=O` (stereo partly drawn) [VIP [D- Met 17]] gave an inhibition constant (Ki) of 33.1 nM. As for `CC[C@H](C)[C@H](NC(=O)[C@H](CO)NC(=O)[C@H](CC(N)=O)NC(=O)[C@H](CC(C)C)NC(=O)[C@H](Cc1ccc(O)cc1)NC(=O)[C@H](CCCCN)NC(=O)[C@H](CCCCN)NC(=O)[C@@H](NC(=O)[C@H](C)NC(=O)[C@H](CCSC)NC(=O)[C@H](CCC(N)=O)NC(=O)[C@H](CCCCN)NC(=O)[C@H](CCCN=C(N)N)NC(=O)[C@H](CC(C)C)NC(=O)[C@H](CCCN=C(N)N)NC(=O)[C@@H](NC(=O)[C@H](Cc1ccc(O)cc1)NC(=O)[C@@H](CC(N)=O)NC(=O)[C@H](CC(=O)O)NC(=O)[C@@H](NC(=O)[C@H](Cc1ccccc1)NC(=O)[C@@H](NC(=O)[C@H](C)NC(=O)[C@H](CC(=O)O)NC(=O)[C@H](CO)NC(=O)[C@@H](N)Cc1cnc[nH]1)C(C)C)[C@@H](C)O)[C@@H](C)O)C(C)C)C(=O)N[C@@H](CC(C)C)C(=O)N[C@@H](CC(N)=O)C(N)=O` [VIP [D-Asn9]], the Ki stood at 2.8 nM. `CC[C@H](C)[C@H](NC(=O)[C@H](CO)NC(=O)[C@H](CC(N)=O)NC(=O)[C@H](CC(C)C)NC(=O)[C@H](Cc1ccc(O)cc1)NC(=O)[C@H](CCCCN)NC(=O)[C@H](CCCCN)NC(=O)[C@@H](NC(=O)[C@H](C)NC(=O)[C@H](CCSC)NC(=O)[C@H](CCC(N)=O)NC(=O)[C@H](CCCCN)NC(=O)[C@H](CCCN=C(N)N)NC(=O)[C@H](CC(C)C)NC(=O)[C@H](CCCN=C(N)N)NC(=O)[C@@H](NC(=O)[C@H](Cc1ccc(O)cc1)NC(=O)[C@H](CC(N)=O)NC(=O)[C@H](CC(=O)O)NC(=O)[C@@H](NC(=O)[C@H](Cc1ccccc1)NC(=O)[C@@H](NC(=O)[C@H](C)NC(=O)[C@H](CC(=O)O)NC(=O)[C@H](CO)NC(=O)[C@@H](N)Cc1cnc[nH]1)C(C)C)[C@@H](C)O)[C@@H](C)O)C(C)C)C(=O)N[C@H](CC(C)C)C(=O)N[C@@H](CC(N)=O)C(N)=O` [VIP [D-Leu27]] registered an inhibitory constant (Ki) of 5 nM.

The molecule `CC[C@H](C)[C@H](NC(=O)[C@@H](CO)NC(=O)[C@H](CC(N)=O)NC(=O)[C@H](CC(C)C)NC(=O)[C@H](Cc1ccc(O)cc1)NC(=O)[C@H](CCCCN)NC(=O)[C@H](CCCCN)NC(=O)[C@@H](NC(=O)[C@H](C)NC(=O)[C@H](CCSC)NC(=O)[C@H](CCC(N)=O)NC(=O)[C@H](CCCCN)NC(=O)[C@H](CCCN=C(N)N)NC(=O)[C@H](CC(C)C)NC(=O)[C@H](CCCN=C(N)N)NC(=O)[C@@H](NC(=O)[C@H](Cc1ccc(O)cc1)NC(=O)[C@H](CC(N)=O)NC(=O)[C@H](CC(=O)O)NC(=O)[C@@H](NC(=O)[C@H](Cc1ccccc1)NC(=O)[C@@H](NC(=O)[C@H](C)NC(=O)[C@H](CC(=O)O)NC(=O)[C@H](CO)NC(=O)[C@@H](N)Cc1cnc[nH]1)C(C)C)[C@@H](C)O)[C@@H](C)O)C(C)C)C(=O)N[C@@H](CC(C)C)C(=O)N[C@@H](CC(N)=O)C(N)=O` [VIP [D-Ser25]] had a Ki of 43.6 nM. Molecule “H-HSDAAFTDNYTRLRKQMAVKKYLNSILN-NH2 [VIP Ala5]” registered a Ki of 34.7 nM. “H-HSDAVFTDNYTRLRKQMAVKKYLASILN-NH2 [VIP Ala24]” had a Ki of 8.9 nM.

For the molecule “H-HSDAVFTDNYTRLRKQMAVKKYLNSALN-NH2 [VIP Ala26]”, the Ki was 4.3 nM and 12.3 nM.
